Data on 15 molecules can be found in ChEMBL document CHEMBL5725827, “2-pyridyloxy-3-ester-4-nitrile orexin receptor antagonists” (2017).

The target of the assay is Orexin/Hypocretin receptor type 1 (Rattus norvegicus, UniProt P56718). Kind of assay: Radioligand Binding Assay: Described in Bergman et. al. Bioorg. Med. Chem. Lett. 2008, 18, 1425-1430. More on the design: species or system Homo sapiens.
Sequence of Orexin/Hypocretin receptor type 1 (P56718 whole entry, looked up): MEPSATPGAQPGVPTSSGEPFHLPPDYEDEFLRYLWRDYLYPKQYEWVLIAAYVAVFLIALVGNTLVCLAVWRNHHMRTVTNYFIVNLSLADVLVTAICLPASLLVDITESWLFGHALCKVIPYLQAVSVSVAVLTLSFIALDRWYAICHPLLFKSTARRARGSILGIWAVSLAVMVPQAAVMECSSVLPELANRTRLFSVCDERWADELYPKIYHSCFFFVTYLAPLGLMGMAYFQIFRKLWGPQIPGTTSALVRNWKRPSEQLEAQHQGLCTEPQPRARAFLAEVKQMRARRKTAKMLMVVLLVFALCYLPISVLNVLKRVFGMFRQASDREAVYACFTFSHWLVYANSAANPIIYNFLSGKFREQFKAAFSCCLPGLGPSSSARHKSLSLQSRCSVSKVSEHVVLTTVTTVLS

`COC(=O)c1c(C#N)ccnc1O[C@@H]1CC[C@@H](C)N(C(=O)c2cccc(F)c2-n2nccn2)C1` gave a Ki of 210 nM. `COC(=O)c1c(C#N)ccnc1O[C@@H]1CC[C@@H](C)N(C(=O)c2ccccc2-c2nc(C)no2)C1` had an inhibition constant Ki of 73.8 nM. `COC(=O)c1c(C#N)ccnc1O[C@@H]1CC[C@@H](C)N(C(=O)c2c(C)cccc2-n2nccn2)C1`: the inhibitory constant (Ki) was 37.1 nM. The same measure for `COC(=O)c1c(C#N)ccnc1O[C@@H]1CC[C@@H](C)N(C(=O)c2cccc(F)c2-c2noc(C)n2)C1`: 128 nM.

In turn, `COC(=O)c1c(C#N)ccnc1O[C@@H]1CC[C@@H](C)N(C(=O)c2ccc(F)cc2-n2nccn2)C1` registered an inhibition constant (Ki) of 175 nM. The same measure for `COC(=O)c1c(C#N)ccnc1O[C@@H]1CC[C@@H](C)N(C(=O)c2cc(F)ccc2-n2nccn2)C1`: 144 nM; for `COC(=O)c1c(C#N)ccnc1O[C@@H]1CC[C@@H](C)N(C(=O)c2cc(F)ccc2-c2ncccn2)C1`: 46 nM; for `COC(=O)c1c(C#N)ccnc1O[C@@H]1CC[C@@H](C)N(C(=O)c2cc(F)ccc2-c2noc(C)n2)C1`: 117 nM. `COC(=O)c1c(C#N)ccnc1O[C@@H]1CC[C@@H](C)N(C(=O)c2ccccc2-c2noc(C)n2)C1` showed a Ki of 86.6 nM. In the case of `COC(=O)c1c(C#N)ccnc1O[C@@H]1CC[C@@H](C)N(C(=O)c2cc(F)ccc2-c2nc(C)no2)C1`, the Ki is 153 nM. The molecule `COC(=O)c1c(C#N)ccnc1O[C@@H]1CC[C@@H](C)N(C(=O)c2ccccc2-n2nccn2)C1` showed a Ki of 56 nM. This Ki is about 2.7-fold lower than that of the molecule before. Molecule `COC(=O)c1c(C#N)ccnc1O[C@@H]1CC[C@@H](C)N(C(=O)c2ccc(F)cc2-c2nc(C)no2)C1` had a Ki of 405 nM. On to `COC(=O)c1c(C#N)ccnc1O[C@@H]1CC[C@@H](C)N(C(=O)c2c(F)cccc2-n2nccn2)C1`, for which the affinity corresponds to a Ki of 63 nM. This Ki lies about 6.4-fold lower than the previous one. Molecule `COC(=O)c1c(C#N)ccnc1O[C@@H]1CC[C@@H](C)N(C(=O)c2ccc(F)cc2-c2ncccn2)C1` registered an inhibition constant (Ki) of 75.6 nM. To `COC(=O)c1c(C#N)ccnc1O[C@@H]1CC[C@@H](C)N(C(=O)c2cc(C)ccc2-n2nccn2)C1` belongs 25.8 nM.

One may read the Ki as a measure of affinity in units of concentration, obtained from inhibition or displacement. A lower Ki goes with tighter binding.
